The text below walks through data of ChEMBL document CHEMBL3132769, “Fragment growing to retain or alter the selectivity of anchored kinase hinge-binding fragments” (Medchemcomm, 2014).

For test [1], the target named is Tyrosine-protein kinase Lyn (Homo sapiens) (UniProt P07948). Description: Inhibition of human full length LYN expressed in baculovirus assessed as substrate phosphorylation using fluorescence-labelled peptides as substrate at 0.2 uM after 90 mins by microfluidic peptide phosphorylation assay.
Tyrosine-protein kinase Lyn (Homo sapiens), sequence (P07948 2-512 limits assumed): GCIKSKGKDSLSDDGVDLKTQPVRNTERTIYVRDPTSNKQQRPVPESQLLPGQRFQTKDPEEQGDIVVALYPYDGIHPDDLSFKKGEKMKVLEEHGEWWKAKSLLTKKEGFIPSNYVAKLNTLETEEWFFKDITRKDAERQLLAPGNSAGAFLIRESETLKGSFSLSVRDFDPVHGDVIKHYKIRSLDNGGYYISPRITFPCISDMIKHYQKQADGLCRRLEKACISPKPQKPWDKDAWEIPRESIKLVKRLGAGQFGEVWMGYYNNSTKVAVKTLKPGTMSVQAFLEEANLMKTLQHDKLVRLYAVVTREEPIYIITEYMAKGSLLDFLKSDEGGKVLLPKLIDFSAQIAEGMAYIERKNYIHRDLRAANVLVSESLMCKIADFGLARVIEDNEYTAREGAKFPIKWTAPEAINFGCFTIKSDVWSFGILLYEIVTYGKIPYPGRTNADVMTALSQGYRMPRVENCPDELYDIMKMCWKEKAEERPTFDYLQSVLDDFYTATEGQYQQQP
The target of test [2] is Serine/threonine-protein kinase PAK 2 (Homo sapiens) (UniProt Q13177). Description: Inhibition of human truncated PAK2 expressed in Escherichia coli cell assessed as substrate phosphorylation using fluorescence-labelled peptides as substrate at 0.2 uM after 90 mins by microfluidic peptide phosphorylation assay.
Serine/threonine-protein kinase PAK 2 (Homo sapiens), sequence (Q13177 whole entry, the tested form may be a part): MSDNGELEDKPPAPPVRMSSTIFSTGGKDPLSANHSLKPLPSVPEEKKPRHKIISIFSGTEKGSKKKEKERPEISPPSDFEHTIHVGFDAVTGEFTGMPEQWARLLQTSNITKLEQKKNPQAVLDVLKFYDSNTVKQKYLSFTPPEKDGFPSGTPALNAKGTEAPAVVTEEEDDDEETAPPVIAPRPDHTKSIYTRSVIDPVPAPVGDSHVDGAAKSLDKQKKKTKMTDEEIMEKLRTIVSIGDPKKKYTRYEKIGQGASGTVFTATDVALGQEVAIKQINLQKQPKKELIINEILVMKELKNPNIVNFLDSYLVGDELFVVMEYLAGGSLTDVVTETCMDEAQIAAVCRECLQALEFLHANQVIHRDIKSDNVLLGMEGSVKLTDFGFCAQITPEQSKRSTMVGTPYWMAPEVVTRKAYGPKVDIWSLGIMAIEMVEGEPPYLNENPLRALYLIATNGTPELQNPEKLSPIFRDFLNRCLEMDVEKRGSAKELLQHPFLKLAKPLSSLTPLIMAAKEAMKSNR
The target in test [3] is T1, Serine/threonine-protein kinase BRSK2 (Homo sapiens) (UniProt Q8IWQ3).
T1 sequence (whole entry): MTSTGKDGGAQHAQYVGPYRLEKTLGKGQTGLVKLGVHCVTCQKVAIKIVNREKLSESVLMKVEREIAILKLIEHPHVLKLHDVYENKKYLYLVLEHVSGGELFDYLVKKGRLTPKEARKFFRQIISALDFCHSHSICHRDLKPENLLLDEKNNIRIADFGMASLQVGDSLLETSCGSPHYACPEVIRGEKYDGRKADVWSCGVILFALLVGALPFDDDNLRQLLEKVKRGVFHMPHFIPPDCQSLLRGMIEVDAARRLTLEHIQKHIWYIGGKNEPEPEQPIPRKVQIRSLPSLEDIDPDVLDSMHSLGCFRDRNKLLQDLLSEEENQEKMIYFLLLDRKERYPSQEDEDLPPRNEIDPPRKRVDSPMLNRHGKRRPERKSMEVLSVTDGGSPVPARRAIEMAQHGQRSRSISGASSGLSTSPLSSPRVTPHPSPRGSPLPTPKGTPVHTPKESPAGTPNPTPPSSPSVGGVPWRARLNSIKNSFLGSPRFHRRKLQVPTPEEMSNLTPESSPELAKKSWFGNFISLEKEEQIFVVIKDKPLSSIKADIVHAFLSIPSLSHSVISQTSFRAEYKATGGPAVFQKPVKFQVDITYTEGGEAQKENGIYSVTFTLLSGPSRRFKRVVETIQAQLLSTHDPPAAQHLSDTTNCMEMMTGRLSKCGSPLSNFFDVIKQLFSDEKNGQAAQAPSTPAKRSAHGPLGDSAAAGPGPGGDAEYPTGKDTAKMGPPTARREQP
The test can be described thus: Inhibition of human truncated BRSK2 expressed in baculovirus assessed as substrate phosphorylation using fluorescence-labelled peptides as substrate at 9 uM after 90 mins by microfluidic peptide phosphorylation assay.

For test [4], the target named is T2, Serine/threonine-protein kinase D1 (Homo sapiens) (UniProt Q15139).
T2 sequence (whole entry): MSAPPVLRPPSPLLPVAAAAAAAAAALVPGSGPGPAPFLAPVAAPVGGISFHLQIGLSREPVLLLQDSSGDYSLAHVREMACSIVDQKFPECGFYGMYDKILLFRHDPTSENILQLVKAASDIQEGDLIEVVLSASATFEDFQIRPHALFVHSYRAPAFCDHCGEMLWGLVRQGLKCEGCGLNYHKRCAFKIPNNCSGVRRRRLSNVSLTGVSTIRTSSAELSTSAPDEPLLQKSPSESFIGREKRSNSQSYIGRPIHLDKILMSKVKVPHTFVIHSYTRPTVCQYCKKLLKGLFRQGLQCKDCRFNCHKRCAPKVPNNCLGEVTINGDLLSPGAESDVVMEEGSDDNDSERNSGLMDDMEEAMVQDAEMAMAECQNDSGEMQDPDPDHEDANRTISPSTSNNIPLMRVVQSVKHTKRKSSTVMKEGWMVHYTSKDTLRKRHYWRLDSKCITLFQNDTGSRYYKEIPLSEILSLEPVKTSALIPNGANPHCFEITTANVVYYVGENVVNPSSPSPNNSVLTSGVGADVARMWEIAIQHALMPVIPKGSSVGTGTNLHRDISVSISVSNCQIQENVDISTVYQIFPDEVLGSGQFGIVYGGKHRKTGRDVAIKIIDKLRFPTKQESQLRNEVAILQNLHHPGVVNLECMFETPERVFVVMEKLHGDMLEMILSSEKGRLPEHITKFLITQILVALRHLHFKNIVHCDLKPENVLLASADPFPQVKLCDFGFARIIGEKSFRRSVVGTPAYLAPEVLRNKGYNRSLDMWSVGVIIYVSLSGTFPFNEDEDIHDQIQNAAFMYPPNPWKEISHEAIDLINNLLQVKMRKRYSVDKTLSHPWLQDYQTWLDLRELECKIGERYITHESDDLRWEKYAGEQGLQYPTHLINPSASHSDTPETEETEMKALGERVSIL
Description: Inhibition of human full length PKD1 expressed in baculovirus assessed as substrate phosphorylation using fluorescence-labelled peptides as substrate at 9 uM after 90 mins by microfluidic peptide phosphorylation assay.

For test [5], the target named is T3, Cytoplasmic tyrosine-protein kinase BMX (Homo sapiens) (UniProt P51813).
T3 sequence (whole entry): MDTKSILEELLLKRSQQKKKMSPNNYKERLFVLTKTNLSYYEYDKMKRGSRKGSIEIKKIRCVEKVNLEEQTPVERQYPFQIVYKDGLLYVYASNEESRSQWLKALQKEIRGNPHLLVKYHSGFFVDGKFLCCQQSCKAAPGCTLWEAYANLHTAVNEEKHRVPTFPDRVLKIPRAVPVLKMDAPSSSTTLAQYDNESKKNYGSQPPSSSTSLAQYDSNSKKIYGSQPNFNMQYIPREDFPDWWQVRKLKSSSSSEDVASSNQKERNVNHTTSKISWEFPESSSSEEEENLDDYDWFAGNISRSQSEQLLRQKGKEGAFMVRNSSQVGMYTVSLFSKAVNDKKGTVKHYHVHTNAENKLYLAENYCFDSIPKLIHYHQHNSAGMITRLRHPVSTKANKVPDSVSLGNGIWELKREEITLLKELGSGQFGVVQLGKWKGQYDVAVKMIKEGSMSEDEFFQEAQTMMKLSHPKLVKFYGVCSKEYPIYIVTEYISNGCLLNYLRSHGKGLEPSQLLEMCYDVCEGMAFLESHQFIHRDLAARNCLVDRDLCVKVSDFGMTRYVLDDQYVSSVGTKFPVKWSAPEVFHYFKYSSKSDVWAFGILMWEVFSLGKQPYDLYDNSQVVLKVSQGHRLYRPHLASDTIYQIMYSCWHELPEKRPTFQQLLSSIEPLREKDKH
Description: Inhibition of human full length BMX expressed in baculovirus assessed as substrate phosphorylation using fluorescence-labelled peptides as substrate at 9 uM after 90 mins by microfluidic peptide phosphorylation assay.

In test [6] the target is T1, Serine/threonine-protein kinase BRSK2 (Homo sapiens). Description: Inhibition of human truncated BRSK2 expressed in baculovirus assessed as substrate phosphorylation using fluorescence-labelled peptides as substrate at 1000 uM after 90 mins by microfluidic peptide phosphorylation assay.
Test [7] has as its target Tyrosine-protein kinase Fyn (Homo sapiens) (UniProt P06241). The test can be described thus: Inhibition of human full length FYN expressed in baculovirus assessed as substrate phosphorylation using fluorescence-labelled peptides as substrate at 1000 uM after 90 mins by microfluidic peptide phosphorylation assay.

Tyrosine-protein kinase Fyn (Homo sapiens), sequence (P06241 2-537 limits assumed): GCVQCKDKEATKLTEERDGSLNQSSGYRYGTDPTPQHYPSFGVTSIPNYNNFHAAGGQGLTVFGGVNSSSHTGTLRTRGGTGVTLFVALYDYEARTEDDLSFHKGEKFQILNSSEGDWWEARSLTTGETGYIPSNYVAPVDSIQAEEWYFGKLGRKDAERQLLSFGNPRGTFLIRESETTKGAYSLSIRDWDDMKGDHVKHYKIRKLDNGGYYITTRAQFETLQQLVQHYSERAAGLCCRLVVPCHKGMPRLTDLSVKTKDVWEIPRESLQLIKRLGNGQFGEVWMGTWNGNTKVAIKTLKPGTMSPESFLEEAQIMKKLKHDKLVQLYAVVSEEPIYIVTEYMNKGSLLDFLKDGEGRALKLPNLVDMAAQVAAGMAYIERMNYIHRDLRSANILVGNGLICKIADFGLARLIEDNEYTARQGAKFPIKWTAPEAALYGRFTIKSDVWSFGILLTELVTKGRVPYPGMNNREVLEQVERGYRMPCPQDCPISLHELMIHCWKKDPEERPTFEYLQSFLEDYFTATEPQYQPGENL

Broadly, the inhibition is the relative decrease from the control value, in per cent. `Clc1ccc(C2(c3ccc(-c4ncnc5[nH]cnc45)cc3)CCNCC2)cc1`: the inhibition was found to be 18% in test [1] and 11% in test [2].
Consider `NCC1CN(c2ncnc3[nH]c4cnccc4c23)CCO1` (configuration not stated), for which the inhibition in test [3] was 36%; in test [4], 76%; in test [5] it was 11%.
On to `c1cnc2[nH]ccc2c1`, for which the inhibition worked out at 28% in test [6] and 24% in test [7].
